From patent US20250195530A1, “POLQ INHIBITORS” (ASTRAZENECA AB, priority 2022, published 2025) come the findings set out here.

Assay [1] concerns DLD-1 cells. Put plainly: Inhibition of proliferation, DLD-1 BRCA2 wt control (Cell Titre Glo 3D). The format is cell-based. The note with it: Homo sapiens, DLD-1, 168 h, 7 days. In short, it runs like this: (§1)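 Proliferation of HR-deficient DLD-1 BRCA2−/− versus isogenic wild-type DLD-1 was measured by ATP luminescence (CellTiter-Glo 3D). Compound exposure lasted 12 or 7 days, respectively, with a fresh dose on day 6. IC50 was the concentration halving maximal signal.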

Assay [2] relates to DLD-1 BRCA2−/− cells. Briefly: Homologous recombination synthetic lethal inhibition of proliferation, DLD-1 BRCA2-/- (Cell Titre Glo 3D). The format is cell-based. The note with it: 12 days; for IC50: Homo sapiens, DLD-1, 288 h. In short, it runs like this:
as §1

Where [3] appears, read: DLD-1 (BRCA2 wt control), Cell Titre Glo 3D, read-out: POLQ PD Prolif Lumin DLD1 Mean pIC50 (converted).
The mark [4] stands for this setting: DLD-1 BRCA2−/−, Cell Titre Glo 3D, read-out: POLQ PD Prolif Lumin BRCA2 −/− Mean pIC50 (converted).
Where [5] appears, read: DLD-1 BRCA2 wt cells, read-out: POLQ PD Prolif Lumin DLD1 mean pIC50 (converted).
[6] abbreviates: DLD-1 BRCA2−/− cells, read-out: POLQ PD Prolif Lumin BRCA2 −/− mean pIC50 (converted).

Like-named read-outs stand apart in the source and are kept apart here.

In the case of `C[C@@H](CCOc1ccc(-c2nc3c(OC4(C)CC4)ncnc3n2Cc2cccc(Cl)c2)c(Cl)c1)C(=O)O` (single isomer, unassigned; isomer 2) [Example 35, 4-(3-Chloro-4-(9-(3-chlorobenzyl)-6-(1-methylcyclopropoxy)-9H-purin-8-yl)phenoxy)-2-methylbutanoic acid (Isomer 2)], the IC50 in assay [1] (setting [3]) is over 10 µM; in assay [2] (setting [4]), 0.126 µM.

As to `COc1ccc(Cl)cc1Cn1c(-c2cccc(OC[C@H](C)CC(=O)O)c2Cl)nc2c(OC3(C)CC3)ncnc21` (single isomer, unassigned; isomer 2) [Example 51, 4-(2-Chloro-3-(9-(5-chloro-2-methoxybenzyl)-6-(1-methylcyclopropoxy)-9H-purin-8-yl)phenoxy)-3-methylbutanoic acid (isomer 2)], the IC50 is over 10 µM in assay [1] (setting [3]) and 0.00794 µM in assay [2] (setting [4]).

With `CC(c1cc(Cl)ccn1)n1c(-c2ccc(OCCN3CCNCC3)cc2Cl)nc2c(OC3(C)CC3)ncnc21` (single isomer, unassigned; isomer 2) [Example S5, 8-(2-chloro-4-(2-(piperazin-1-yl)ethoxy)phenyl)-9-(1-(4-chloropyridin-2-yl)ethyl)-6-(1-methylcyclopropoxy)-9H-purine (Isomer 2)], the IC50 in assay [1] (setting [5]) was over 10 µM. Further, the “POLQ PD Prolif Lumin BRCA2 −/− mean pIC50” value in assay [2] (DLD-1 BRCA2−/− cells) is recorded as 6.1.

For the compound `Cc1cc(OCCN2CCN(C)CC2)ccc1-c1nc2c(OC(C)C)ncnc2n1Cc1ccccc1` [Example 1, 9-Benzyl-6-isopropoxy-8-(2-methyl-4-(2-(4-methylpiperazin-1-yl)ethoxy)phenyl)-9H-purine], the IC50 in assay [1] (setting [5]) was 6.31 µM; in assay [2] (setting [6]) it was 0.631 µM.

With `CC(C)Oc1ccc2c(c1)nc(-c1ccc(OCCCN)cc1Cl)n2Cc1ccccc1` [Example 3, 3-(4-(1-Benzyl-5-isopropoxy-1H-benzo[d]imidazol-2-yl)-3-chlorophenoxy)propan-1-amine], the IC50 is 1.58 µM in assay [1] (setting [5]) and 1 µM in assay [2] (setting [6]).

As for `CN1CCN(CCOc2ccc(-c3nc4c(OC5(C)CC5)ncnc4n3Cc3ccccc3)c(Cl)c2)CC1` [Example 4, 9-Benzyl-8-(2-chloro-4-(2-(4-methylpiperazin-1-yl)ethoxy)phenyl)-6-(1-methylcyclopropoxy)-9H-purine], the IC50 in assay [1] (setting [5]) was 3.98 µM; in assay [2] (setting [6]), 0.0631 µM.

For `CN1CCC(COc2ccc(-c3nc4c(OC5(C)CC5)ncnc4n3Cc3ccccc3)c(Cl)c2)CC1` [Example 5, 9-Benzyl-8-(2-chloro-4-((1-methylpiperidin-4-yl)methoxy)phenyl)-6-(1-methylcyclopropoxy)-9H-purine], the values for the IC50 in assay [1] (setting [5]) and in assay [2] (setting [6]) were 3.16 µM and 0.0501 µM, respectively.

With `CC1(Oc2ncnc3c2nc(-c2ccc(OCCN4CCNCC4)cc2Cl)n3Cc2ccccc2)CC1` [Example 6, 9-Benzyl-8-(2-chloro-4-(2-(piperazin-1-yl)ethoxy)phenyl)-6-(1-methylcyclopropoxy)-9H-purine], the IC50 was 3.98 µM in assay [1] (setting [5]) and 0.158 µM in assay [2] (setting [6]).

On to `Cc1nc(Cn2c(-c3ccc(OCCN4CCN(C)CC4)cc3Cl)nc3c(OC4(C)CC4)ncnc32)cs1` [Example 7, 4-((8-(2-Chloro-4-(2-(4-methylpiperazin-1-yl)ethoxy)phenyl)-6-(1-methylcyclopropoxy)-9H-purin-9-yl)methyl)-2-methylthiazole], for which the results for the IC50 in assay [1] (setting [5]) and in assay [2] (setting [6]) were over 10 µM and 0.794 µM, respectively.

Take `CC(C)Oc1ccc2c(n1)nc(-c1ccc(OCCN3CCNCC3)cc1Cl)n2Cc1ccccc1` [Example 8, 1-Benzyl-2-(2-chloro-4-(2-(piperazin-1-yl)ethoxy)phenyl)-5-isopropoxy-1H-imidazo[4,5-b]pyridine]: the results for the IC50 in assay [1] (setting [5]) and in assay [2] (setting [6]) were 3.16 µM and 1 µM, respectively.

For the compound `CC(C)Oc1nccc2c1nc(-c1ccc(OCCN3CCNCC3)cc1Cl)n2Cc1ccccc1` [Example 9, 1-benzyl-2-(2-chloro-4-(2-(piperazin-1-yl)ethoxy)phenyl)-4-isopropoxy-1H-imidazo[4,5-c]pyridine], the IC50 in assay [1] (setting [5]) was 2.51 µM; in assay [2] (setting [6]), 0.631 µM.
